Data: patent publication US3960877A, “N-monosubstituted-2,3-pyridinedicarboxamides, and related compounds” (priority 1974, dated 1976)

Tests used:
Format in all cases: in vivo
Crabgrass [1] = test: Postemergence herbicidal activity, % control of plant growth; details: Digitaria sanguinalis, post-emergence, 264 h, 8 lb/acre, about 11 days
Method in brief: (§1)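 Emerged plants were treated by spraying soil and foliage, about 2 weeks after planting, with compound at 8 lb per acre; evaluation by visual observation of percent control of plant growth took place about 11 days after treatment.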

Cheatgrass [2] = test: as above; details: Bromus tectorum, post-emergence, 264 h, 8 lb/acre, about 11 days
Method in brief: as §1

Yellow Rocket [3] = test: as above; details: post-emergence, 264 h, 8 lb/acre, about 11 days
Method in brief: as §1

Corn [4] = test: as above; details: Zea mays, post-emergence, 264 h, 8 lb/acre, about 11 days
Method in brief: as §1

Nutgrass [5] = test: as above; details: post-emergence, 264 h, 8 lb/acre, about 11 days
Method in brief: as §1

Curled Dock [6] = test: as above; details: post-emergence, 264 h, 8 lb/acre, about 11 days
Method in brief: as §1

Wild Oats [7] = test: as above; details: Avena fatua, post-emergence, 264 h, 8 lb/acre, about 11 days
Method in brief: as §1

Chickweed [8] = test: as above; details: post-emergence, 264 h, 8 lb/acre, about 11 days
Method in brief: as §1

Snapbeans [9] = test: as above; details: post-emergence, 264 h, 8 lb/acre, about 11 days
Method in brief: as §1

Johnsongrass [10] = test: as above; details: Sorghum halepense, post-emergence, 264 h, 8 lb/acre, about 11 days
Method in brief: as §1

Velvetleaf [11] = test: as above; details: Abutilon theophrasti, post-emergence, 264 h, 8 lb/acre, about 11 days
Method in brief: as §1

Foxtail [12] = test: as above; details: Setaria, post-emergence, 264 h, 8 lb/acre, about 11 days
Method in brief: as §1

Pigweed [13] = test: as above; details: Amaranthus retroflexus, post-emergence, 264 h, 8 lb/acre, about 11 days
Method in brief: as §1

Lambsquarters [14] = test: as above; details: Chenopodium album, post-emergence, 264 h, 8 lb/acre, about 11 days
Method in brief: as §1

Cucumber [15] = test: as above; details: Cucumis sativus, post-emergence, 264 h, 8 lb/acre, about 11 days
Method in brief: as §1

Barnyard Grass [16] = test: as above; details: Echinochloa crus-galli, post-emergence, 264 h, 8 lb/acre, about 11 days
Method in brief: as §1

Alfalfa [17] = test: as above; details: Medicago sativa, post-emergence, 264 h, 8 lb/acre, about 11 days
Method in brief: as §1

Crabgrass [18] = test: Preemergence herbicidal activity, % control of plant growth; details: Digitaria sanguinalis, pre-emergence, 504 h, 16 lb/acre, about 3 weeks
Method in brief: (§2)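 Visual % control (average), ~3 weeks after a 16 lb/acre pre-emergence soil spray applied immediately after sowing; compound as ~2 wt% solution in acetone and/or alcohol.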

Cheatgrass [19] = test: as above; details: Bromus tectorum, pre-emergence, 504 h, 16 lb/acre, about 3 weeks
Method in brief: as §2

Yellow Rocket [20] = test: as above; details: pre-emergence, 504 h, 16 lb/acre, about 3 weeks
Method in brief: as §2

Corn [21] = test: as above; details: Zea mays, pre-emergence, 504 h, 16 lb/acre, about 3 weeks
Method in brief: as §2

Nutgrass [22] = test: as above; details: pre-emergence, 504 h, 16 lb/acre, about 3 weeks
Method in brief: as §2

Curled Dock [23] = test: as above; details: pre-emergence, 504 h, 16 lb/acre, about 3 weeks
Method in brief: as §2

Wild Oats [24] = test: as above; details: Avena fatua, pre-emergence, 504 h, 16 lb/acre, about 3 weeks
Method in brief: as §2

Chickweed [25] = test: as above; details: pre-emergence, 504 h, 16 lb/acre, about 3 weeks
Method in brief: as §2

Snapbeans [26] = test: as above; details: pre-emergence, 504 h, 16 lb/acre, about 3 weeks
Method in brief: as §2

Johnsongrass [27] = test: as above; details: Sorghum halepense, pre-emergence, 504 h, 16 lb/acre, about 3 weeks
Method in brief: as §2

Velvetleaf [28] = test: as above; details: Abutilon theophrasti, pre-emergence, 504 h, 16 lb/acre, about 3 weeks
Method in brief: as §2

Foxtail [29] = test: as above; details: Setaria, pre-emergence, 504 h, 16 lb/acre, about 3 weeks
Method in brief: as §2

Pigweed [30] = test: as above; details: Amaranthus retroflexus, pre-emergence, 504 h, 16 lb/acre, about 3 weeks
Method in brief: as §2

Lambsquarters [31] = test: as above; details: Chenopodium album, pre-emergence, 504 h, 16 lb/acre, about 3 weeks
Method in brief: as §2

Cucumber [32] = test: as above; details: Cucumis sativus, pre-emergence, 504 h, 16 lb/acre, about 3 weeks
Method in brief: as §2

Barnyard Grass [33] = test: as above; details: Echinochloa crus-galli, pre-emergence, 504 h; barnyard grass; 16 lb/acre; about 3 weeks
Method in brief: as §2

Alfalfa [34] = test: as above; details: Medicago sativa, pre-emergence, 504 h, 16 lb/acre, about 3 weeks
Method in brief: as §2

## CCn1c(=O)[nH]c2cccnc2c1=O [3-ethyl-pyrido[3,2-d]pyrimidine-2,4(1H,3H)-dione]
Crabgrass [1]
  pest or weed control at 8966.8 g/ha: 80%
Cheatgrass [2]
  pest or weed control at 8966.8 g/ha: 30%
Yellow Rocket [3]
  pest or weed control at 8966.8 g/ha: 100%
Corn [4]
  plant injury at 8966.8 g/ha: 10%
Nutgrass [5]
  pest or weed control at 8966.8 g/ha: 10%
Curled Dock [6]
  pest or weed control at 8966.8 g/ha: 90%
Wild Oats [7]
  pest or weed control at 8966.8 g/ha: 0%
Chickweed [8]
  pest or weed control at 8966.8 g/ha: 100%
Snapbeans [9]
  pest or weed control at 8966.8 g/ha: 80%
Johnsongrass [10]
  pest or weed control at 8966.8 g/ha: 60%
Velvetleaf [11]
  pest or weed control at 8966.8 g/ha: 100%
Foxtail [12]
  pest or weed control at 8966.8 g/ha: 40%
Pigweed [13]
  pest or weed control at 8966.8 g/ha: 90%
Lambsquarters [14]
  pest or weed control at 8966.8 g/ha: 100%
Cucumber [15]
  pest or weed control at 8966.8 g/ha: 50%
Barnyard Grass [16]
  pest or weed control at 8966.8 g/ha: 10%
Alfalfa [17]
  pest or weed control at 8966.8 g/ha: 50%
Crabgrass [18]
  pest or weed control at 17933.6 g/ha: 100%
Cheatgrass [19]
  pest or weed control at 17933.6 g/ha: 100%
Yellow Rocket [20]
  pest or weed control at 17933.6 g/ha: 100%
Corn [21]
  plant injury at 17933.6 g/ha: 10%
Nutgrass [22]
  pest or weed control at 17933.6 g/ha: 10%
Curled Dock [23]
  pest or weed control at 17933.6 g/ha: 100%
Wild Oats [24]
  pest or weed control at 17933.6 g/ha: 100%
Chickweed [25]
  pest or weed control at 17933.6 g/ha: 100%
Snapbeans [26]
  pest or weed control at 17933.6 g/ha: 100%
Johnsongrass [27]
  pest or weed control at 17933.6 g/ha: 60%
Velvetleaf [28]
  pest or weed control at 17933.6 g/ha: 90%
Foxtail [29]
  pest or weed control at 17933.6 g/ha: 40%
Pigweed [30]
  pest or weed control at 17933.6 g/ha: 100%
Lambsquarters [31]
  pest or weed control at 17933.6 g/ha: 100%
Cucumber [32]
  pest or weed control at 17933.6 g/ha: 100%
Barnyard Grass [33]
  pest or weed control at 17933.6 g/ha: 40%
Alfalfa [34]
  pest or weed control at 17933.6 g/ha: 100%

## CCCn1c(=O)[nH]c2cccnc2c1=O [3-propyl-pyrido[3,2-d]pyrimidine-2,4(1H,3H)-dione]
Crabgrass [1]
  pest or weed control at 8966.8 g/ha: 100%
Cheatgrass [2]
  pest or weed control at 8966.8 g/ha: 100%
Yellow Rocket [3]
  pest or weed control at 8966.8 g/ha: 100%
Corn [4]
  plant injury at 8966.8 g/ha: 60%
Nutgrass [5]
  pest or weed control at 8966.8 g/ha: 70%
Curled Dock [6]
  pest or weed control at 8966.8 g/ha: 100%
Wild Oats [7]
  pest or weed control at 8966.8 g/ha: 90%
Chickweed [8]
  pest or weed control at 8966.8 g/ha: 100%
Snapbeans [9]
  pest or weed control at 8966.8 g/ha: 100%
Johnsongrass [10]
  pest or weed control at 8966.8 g/ha: 100%
Velvetleaf [11]
  pest or weed control at 8966.8 g/ha: 100%
Foxtail [12]
  pest or weed control at 8966.8 g/ha: 100%
Pigweed [13]
  pest or weed control at 8966.8 g/ha: 100%
Lambsquarters [14]
  pest or weed control at 8966.8 g/ha: 100%
Cucumber [15]
  pest or weed control at 8966.8 g/ha: 100%
Barnyard Grass [16]
  pest or weed control at 8966.8 g/ha: 100%
Alfalfa [17]
  pest or weed control at 8966.8 g/ha: 100%
Crabgrass [18]
  pest or weed control at 17933.6 g/ha: 100%
Cheatgrass [19]
  pest or weed control at 17933.6 g/ha: 100%
Yellow Rocket [20]
  pest or weed control at 17933.6 g/ha: 100%
Corn [21]
  plant injury at 17933.6 g/ha: 100%
Nutgrass [22]
  pest or weed control at 17933.6 g/ha: 20%
Curled Dock [23]
  pest or weed control at 17933.6 g/ha: 100%
Wild Oats [24]
  pest or weed control at 17933.6 g/ha: 100%
Chickweed [25]
  pest or weed control at 17933.6 g/ha: 100%
Snapbeans [26]
  pest or weed control at 17933.6 g/ha: 100%
Johnsongrass [27]
  pest or weed control at 17933.6 g/ha: 100%
Velvetleaf [28]
  pest or weed control at 17933.6 g/ha: 100%
Foxtail [29]
  pest or weed control at 17933.6 g/ha: 100%
Pigweed [30]
  pest or weed control at 17933.6 g/ha: 100%
Lambsquarters [31]
  pest or weed control at 17933.6 g/ha: 100%
Cucumber [32]
  pest or weed control at 17933.6 g/ha: 100%
Barnyard Grass [33]
  pest or weed control at 17933.6 g/ha: 100%
Alfalfa [34]
  pest or weed control at 17933.6 g/ha: 100%
